In general, inhibition refers to the change of the read-out against control, counted positive when it falls.

In test [1] the test system is glutamate and GABA concentrations in the hippocampus and cortex. In words: Glutamate and GABA concentrations in hippocampus and cortex of PTZ-kindled mice (LC-MS/MS). The class given is in vivo. The text has this: After completion of behavioral tests, animals were sacrificed and the brains were collected for the analysis of glutamate and GABA concentrations in the hippocampus and cortex. No changes in glutamate and GABA concentrations were reported in the hippocampus (Figure 4A). However, statistically significant differences in the concentration of both glutamate and GABA (Figure 4B) were found in the cortex. The FST procedure increased cortical glutamate concentrations in this brain structure as compared to naive mice (p < 0.05), whereas PTZ-induced kindling caused a ∼30% decrease in glutamate concentrations in comparison to the nonkindled control group exposed to the FST test (p < 0.0001).
Concentrations of GABA and glutamate in the mouse prefrontal cortex and hippocampus were measured by the liquid chromatography-tandem mass spectrometry (LC-MS/MS) method. Standards of both analytes were purchased from Toronto Research Chemicals Inc. (Toronto, ON, Canada). The stock standard solutions of GABA and glutamate were prepared in methanol and deionized water, respectively, and stored at 4 °C. A series of solution mixtures of desired concentrations were prepared by suitable dilutions of the stock solutions. Before analysis, murine brains were homogenized in distilled water at the ratio of 50 μL/mg using a handheld pestle and a glass tube homogenizer (Potter–Elvehjem PTFE pestle and glass tube, Sigma-Aldrich). Homogenates were centrifuged at 8000g for 10 min at 4 °C, and the supernatant was diluted 10 times with 0.1% formic acid in MeCN. After addition of isotope-labeled GABA-d6 and glutamate-d5 (Toronto Research Chemicals Inc., Toronto, ON, Canada) as internal standards (10 μL at a concentration of 500 ng/mL), samples (10 μL) were deproteinized with 80 μL of 0.1% formic acid in MeCN by shaking for 10 min (IKA Vibrax VXR, Germany) and then centrifuged for 5 min at a speed of 8000g (Eppendorf miniSpin centrifuge). The obtained supernatants were transferred into the autosampler vials. Chromatographic separation was carried out on an XBridge HILIC analytical column (2.1 × 150 mm^2, 3.5 μm, Waters, Ireland) with the oven temperature set at 25 °C using the Excion LC AC HPLC system. The autosampler temperature was maintained at 15 °C, and a sample volume of 2 μL was injected into the LC-MS/MS system. […] The tandem mass spectrometer was operated at unit resolution in the selected reaction monitoring mode (SRM), monitoring the transition of the protonated molecular ions m/z 104–87 and m/z 104–69 for GABA and m/z 148–84 and m/z 148–102 for glutamate (the first pair was used as a quantifier and the second for the identity verification—qualifier). For isotope-labeled GABA-d6 and glutamate-d5 monitored pairs were m/z 110–93 and m/z 153–88, respectively. […]

A further test addresses T1, GABA transaminase (Rattus norvegicus, UniProt P50554).
T1 construct: Eurofins (contract assay)
Nature of the test: GABA transaminase assay. The class given is biochemical. The settings on record: rat brain, read-out: % inhibition of control specific binding. Here is the method: (§1) Binding/functional studies were carried out commercially in Eurofins Laboratories (Poitiers, France) and Eurofins Panlabs Discovery Services Taiwan, Ltd. (New Taipei City, Taiwan) using testing procedures that were reported previously (for details, see Table S2).
(§2) Table S2. Radioligand binding and functional assays. […]
(§3) Potassium channel (hERG) […]
(§4) Assays were performed commercially in Eurofins Laboratories ( Poitiers, France) or Eurofins Panlabs Discovery Services
(§5) Taiwan, Ltd. (New Taipei City, Taiwan).

For a further test, the system named is mature BDNF (mBDNF). Nature of the test: mBDNF and proNGF expression in hippocampus and cortex of PTZ-kindled mice (western blot). The settings on record: PTZ-kindled animals, prolonged treatment. The class given is in vivo. On the procedure:
In addition, we determined the expression of the nerve growth factor (NGF), which can also be implicated in kindling progression, by enhancing mossy fiber sprouting.[40] However, no changes in the NGF protein expression in the hippocampus and cortex of kindled animals were found (Figure 5C,D).
The expression of mBDNF and proNGF in the mouse hippocampus and cortex was evaluated by the western blot technique. Half of mouse brain structures, cortex and hippocampus, were weighted and homogenized at the ratio of 9 μL/mg in 2% sodium dodecyl sulfate (SDS) supplemented with a cocktail of protease (Thermo Scientific) and phosphatese inhibitors (Sigma-Aldrich) using a bead homogenizer (Bead Ruptor Elite, Omni International). Then, the samples were denatured at 95 °C for 10 min and centrifuged at 10,000g for 10 min at 4 °C. The total protein concentration in the obtained supernatants was determined using a PierceTM BCA Protein Assay Kit (Thermo Scientific, Waltham, MA). After setting the proper protein concentration, the samples were mixed with loading buffer (containing 10% 2-mercaptoethanol) at a ratio of 3:1 and heated for 10 min at 95 °C. Equal amounts of the protein (45 μg/lane) were loaded on Any kD precast polyacrylamide gels (Criterion, TGX Stain-Free gel, Bio-Rad, Hercules, CA) and subjected to electrophoresis (170 V, 60 min). Separated proteins were transferred to the polyvinylidene difluoride (PVDF) membrane (Bio-Rad, Hercules, CA) and were blocked in a 5% solution of albumin in TBST. […] The proteins were detected using the electrochemiluminescence (ECL) method (Western Bright Quantum, Advansta Inc., San Jose, CA). The chemiluminescence of the membranes was imaged with the G-Box Imaging System (Syngene, Frederick, MD), and the protein expression was analyzed with Gene Tools software (Syngene, Frederick, MD) and expressed as relative to the total protein content in the membrane lane.
Changes in the relative expression of tested proteins were analyzed using one-way ANOVA with Tukey’s post hoc test.
A general note: Immunoblotting shows a protein as a band on a membrane.

The target of test [2] is T2, Cav2.2 calcium ion channel (Rattus norvegicus, UniProt Q02294).
T2 construct: rat cerebral cortex; tissue Eurofins (contract assay); host or cells: rat cerebral cortex
T2 sequence (Q02294 whole entry): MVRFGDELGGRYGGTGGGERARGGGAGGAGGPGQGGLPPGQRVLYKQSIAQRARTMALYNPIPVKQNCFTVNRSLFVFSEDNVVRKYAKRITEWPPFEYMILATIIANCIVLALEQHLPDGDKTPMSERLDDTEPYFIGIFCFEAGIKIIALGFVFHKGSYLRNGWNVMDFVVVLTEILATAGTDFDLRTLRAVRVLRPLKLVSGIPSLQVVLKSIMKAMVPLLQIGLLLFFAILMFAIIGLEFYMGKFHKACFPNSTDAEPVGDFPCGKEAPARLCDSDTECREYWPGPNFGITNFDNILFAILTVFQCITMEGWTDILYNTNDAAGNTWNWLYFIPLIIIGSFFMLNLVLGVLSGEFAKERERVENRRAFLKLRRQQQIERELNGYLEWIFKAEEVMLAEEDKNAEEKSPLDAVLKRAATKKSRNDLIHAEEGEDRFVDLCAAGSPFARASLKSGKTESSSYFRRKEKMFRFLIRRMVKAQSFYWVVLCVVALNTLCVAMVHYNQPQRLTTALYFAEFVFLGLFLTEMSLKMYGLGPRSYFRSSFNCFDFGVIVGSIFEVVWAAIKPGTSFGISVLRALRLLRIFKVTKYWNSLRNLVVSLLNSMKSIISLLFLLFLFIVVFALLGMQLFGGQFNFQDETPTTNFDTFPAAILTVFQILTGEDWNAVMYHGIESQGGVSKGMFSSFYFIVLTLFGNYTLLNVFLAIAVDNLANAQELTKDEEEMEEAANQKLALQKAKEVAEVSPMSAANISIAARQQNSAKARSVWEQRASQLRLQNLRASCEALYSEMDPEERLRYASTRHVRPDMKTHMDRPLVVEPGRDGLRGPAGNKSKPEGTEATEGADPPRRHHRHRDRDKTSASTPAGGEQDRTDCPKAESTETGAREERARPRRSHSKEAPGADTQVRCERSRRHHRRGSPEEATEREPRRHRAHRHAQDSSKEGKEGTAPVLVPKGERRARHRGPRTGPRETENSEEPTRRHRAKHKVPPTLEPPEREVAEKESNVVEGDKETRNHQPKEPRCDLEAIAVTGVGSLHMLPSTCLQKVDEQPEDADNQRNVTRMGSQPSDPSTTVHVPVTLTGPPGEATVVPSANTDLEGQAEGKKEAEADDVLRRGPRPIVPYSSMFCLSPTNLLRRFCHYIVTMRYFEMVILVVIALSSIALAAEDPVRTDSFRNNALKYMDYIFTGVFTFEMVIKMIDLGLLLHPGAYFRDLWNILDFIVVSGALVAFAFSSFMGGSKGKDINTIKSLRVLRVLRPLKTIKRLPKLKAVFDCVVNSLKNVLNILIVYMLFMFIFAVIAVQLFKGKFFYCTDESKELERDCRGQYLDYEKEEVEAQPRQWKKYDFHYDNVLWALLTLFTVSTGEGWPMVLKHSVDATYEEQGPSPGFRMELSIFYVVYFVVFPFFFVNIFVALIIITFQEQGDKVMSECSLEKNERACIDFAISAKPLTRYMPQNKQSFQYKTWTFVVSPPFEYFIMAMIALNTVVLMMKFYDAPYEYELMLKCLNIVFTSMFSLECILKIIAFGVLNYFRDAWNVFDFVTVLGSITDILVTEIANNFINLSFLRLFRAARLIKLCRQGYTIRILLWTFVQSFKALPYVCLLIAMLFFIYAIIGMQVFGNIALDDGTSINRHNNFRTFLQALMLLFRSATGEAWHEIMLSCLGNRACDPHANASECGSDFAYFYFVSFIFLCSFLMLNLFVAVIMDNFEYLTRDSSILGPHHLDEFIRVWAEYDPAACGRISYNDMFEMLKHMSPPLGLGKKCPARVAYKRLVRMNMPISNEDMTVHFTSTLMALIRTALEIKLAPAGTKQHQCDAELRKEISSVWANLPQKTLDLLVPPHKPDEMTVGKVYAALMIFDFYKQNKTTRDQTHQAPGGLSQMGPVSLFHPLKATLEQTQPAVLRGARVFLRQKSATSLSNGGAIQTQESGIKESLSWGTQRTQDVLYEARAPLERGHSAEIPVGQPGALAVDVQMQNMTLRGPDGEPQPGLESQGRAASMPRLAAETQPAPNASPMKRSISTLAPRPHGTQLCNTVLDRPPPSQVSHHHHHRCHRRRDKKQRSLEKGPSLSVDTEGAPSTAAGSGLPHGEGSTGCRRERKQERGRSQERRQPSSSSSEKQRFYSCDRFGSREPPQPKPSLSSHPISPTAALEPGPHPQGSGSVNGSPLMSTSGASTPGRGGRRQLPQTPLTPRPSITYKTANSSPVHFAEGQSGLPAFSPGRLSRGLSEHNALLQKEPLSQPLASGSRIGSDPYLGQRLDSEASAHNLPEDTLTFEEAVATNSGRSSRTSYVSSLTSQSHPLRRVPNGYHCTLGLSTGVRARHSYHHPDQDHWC
T2 sequence (P54287 whole entry partner): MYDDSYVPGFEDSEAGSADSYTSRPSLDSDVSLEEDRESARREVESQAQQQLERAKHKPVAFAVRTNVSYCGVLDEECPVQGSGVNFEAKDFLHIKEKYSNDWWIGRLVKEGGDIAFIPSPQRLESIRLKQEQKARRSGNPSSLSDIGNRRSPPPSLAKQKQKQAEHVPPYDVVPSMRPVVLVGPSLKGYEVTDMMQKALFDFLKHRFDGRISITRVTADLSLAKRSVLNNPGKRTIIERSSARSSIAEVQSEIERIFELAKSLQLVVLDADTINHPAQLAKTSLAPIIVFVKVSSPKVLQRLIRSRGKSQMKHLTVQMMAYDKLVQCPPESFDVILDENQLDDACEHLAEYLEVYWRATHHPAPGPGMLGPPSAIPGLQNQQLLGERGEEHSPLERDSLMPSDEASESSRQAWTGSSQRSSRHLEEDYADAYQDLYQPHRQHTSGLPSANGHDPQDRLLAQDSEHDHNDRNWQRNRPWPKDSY
T2 sequence (P54290 25-944 partner limits assumed): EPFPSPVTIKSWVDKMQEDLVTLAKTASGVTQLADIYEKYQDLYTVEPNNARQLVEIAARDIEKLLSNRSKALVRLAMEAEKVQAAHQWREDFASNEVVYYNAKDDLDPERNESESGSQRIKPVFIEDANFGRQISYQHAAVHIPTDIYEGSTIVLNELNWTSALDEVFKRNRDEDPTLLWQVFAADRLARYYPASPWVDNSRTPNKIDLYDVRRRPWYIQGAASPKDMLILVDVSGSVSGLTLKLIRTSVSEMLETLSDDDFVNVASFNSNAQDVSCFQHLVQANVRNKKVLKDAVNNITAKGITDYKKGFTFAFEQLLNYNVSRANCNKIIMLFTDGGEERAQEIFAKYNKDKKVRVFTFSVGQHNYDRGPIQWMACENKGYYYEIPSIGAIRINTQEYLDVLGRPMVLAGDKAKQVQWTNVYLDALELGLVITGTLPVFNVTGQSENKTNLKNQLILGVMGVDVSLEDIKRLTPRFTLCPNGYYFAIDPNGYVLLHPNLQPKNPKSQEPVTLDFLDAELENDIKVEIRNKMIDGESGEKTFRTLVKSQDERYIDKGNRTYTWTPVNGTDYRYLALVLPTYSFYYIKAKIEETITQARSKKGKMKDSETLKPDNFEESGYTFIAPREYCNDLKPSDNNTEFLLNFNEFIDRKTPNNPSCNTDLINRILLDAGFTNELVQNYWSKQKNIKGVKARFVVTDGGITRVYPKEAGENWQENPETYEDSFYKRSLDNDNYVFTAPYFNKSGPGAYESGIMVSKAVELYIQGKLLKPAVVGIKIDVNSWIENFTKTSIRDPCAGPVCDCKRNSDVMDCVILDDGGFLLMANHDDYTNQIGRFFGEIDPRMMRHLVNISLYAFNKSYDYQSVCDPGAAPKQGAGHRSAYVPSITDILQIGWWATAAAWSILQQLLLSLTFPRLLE
T2 sequence (P54290 945-1091 partner limits assumed): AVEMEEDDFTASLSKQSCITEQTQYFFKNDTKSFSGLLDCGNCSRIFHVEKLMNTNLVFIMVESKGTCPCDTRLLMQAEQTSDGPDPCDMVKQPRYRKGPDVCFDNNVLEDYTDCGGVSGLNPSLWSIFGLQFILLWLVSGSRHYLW
In words: Cav2.2 binding (antagonist radioligand). The settings on record: rat cerebral cortex, read-out: % inhibition of control specific binding. Here is the method: as §1, §2
Cav2.2 calcium ion channel (antagonist radioligand) […]
as §3, §4, §5

T1 sequence (P50554 28-500): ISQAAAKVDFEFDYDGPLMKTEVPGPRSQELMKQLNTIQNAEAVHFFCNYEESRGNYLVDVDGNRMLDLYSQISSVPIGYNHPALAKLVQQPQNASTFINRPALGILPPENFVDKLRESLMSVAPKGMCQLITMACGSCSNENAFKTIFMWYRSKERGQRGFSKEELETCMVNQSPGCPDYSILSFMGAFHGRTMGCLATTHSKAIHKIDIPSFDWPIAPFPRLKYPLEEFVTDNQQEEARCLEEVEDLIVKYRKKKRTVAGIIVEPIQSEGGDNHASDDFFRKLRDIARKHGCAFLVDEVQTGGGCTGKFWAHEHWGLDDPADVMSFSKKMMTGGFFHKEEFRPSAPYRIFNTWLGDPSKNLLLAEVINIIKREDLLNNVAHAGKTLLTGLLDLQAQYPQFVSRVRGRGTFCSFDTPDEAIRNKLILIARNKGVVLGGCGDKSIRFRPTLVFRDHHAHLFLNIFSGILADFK

`CC(=O)NC(C)C(=O)N1CCN(c2cccc(OC(F)(F)F)c2)CC1` (stereo not drawn) [Compound 28, N-(1-oxo-1-(4-(3-(Trifluoromethoxy)phenyl)piperazin-1-yl)propan-2-yl)acetamide]: in test [1] (PTZ-kindled animals vs PTZ-kindled control), the “GABA concentrations in the cortex” value was “did not affect GABA concentrations”. In addition, the “cortical glutamate concentration (PTZ-kindling-induced decrease)” value in test [1] (cortex, 28 at 40 mg/kg, VPA 150 mg/kg) is recorded as “reversed this effect”. At GABA transaminase, the inhibition at 100 µM is -1.9%. In addition, in the test on mature BDNF (mBDNF), the “mBDNF expression in the cortex” value is given as “decreased the expression of mBDNF” and the “mBDNF expression in the hippocampus” value is “not in the hippocampus”. Besides, the inhibition at 100 µM in test [2] is 3.6%.
